Each structure is given as a SMILES string.

Holding throughout (type): ADME
Data set [1] deals with Liver microsome. The data set can be described thus: Drug metabolism in human liver microsomes assessed as drug glucuronidation in presence of 5 to 35 uM androsterone by LC-MS/MS method. (In general: Liver microsomes are vesicles of endoplasmic reticulum, rich in cytochrome P450 enzymes.)
Data set [2] concerns the target T1, UDP-glucuronosyltransferase 2B17 (Homo sapiens, UniProt O75795).
T1 sequence (O75795 whole entry): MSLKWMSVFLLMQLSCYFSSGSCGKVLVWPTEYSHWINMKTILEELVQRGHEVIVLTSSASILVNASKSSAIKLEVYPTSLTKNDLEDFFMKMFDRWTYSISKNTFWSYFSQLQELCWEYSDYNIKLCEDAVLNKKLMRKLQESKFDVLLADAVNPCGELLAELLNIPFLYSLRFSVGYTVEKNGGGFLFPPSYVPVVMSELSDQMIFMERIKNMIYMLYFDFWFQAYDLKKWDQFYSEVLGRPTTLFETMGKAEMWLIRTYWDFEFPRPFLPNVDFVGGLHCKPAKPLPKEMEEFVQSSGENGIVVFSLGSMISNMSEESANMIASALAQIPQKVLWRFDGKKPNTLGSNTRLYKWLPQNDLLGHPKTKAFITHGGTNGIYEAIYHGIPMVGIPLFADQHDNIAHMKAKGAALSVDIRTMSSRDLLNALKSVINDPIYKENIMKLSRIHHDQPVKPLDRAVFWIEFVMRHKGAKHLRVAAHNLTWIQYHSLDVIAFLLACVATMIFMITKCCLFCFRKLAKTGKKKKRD
The data set can be described thus: Activity of human recombinant UGT2B17 expressed in insect cells assessed as enzyme mediated glucuronidation at 12.5 uM by LC-MS/MS method.

The nature of data set [3]: Drug metabolism in human kidney microsomes assessed as drug glucuronidation in presence of BSA by LC-MS/MS method.
Data set [4] deals with T2, UDP-glucuronosyltransferase 1A10 (Homo sapiens, UniProt Q9HAW8).
T2 sequence (Q9HAW8 whole entry): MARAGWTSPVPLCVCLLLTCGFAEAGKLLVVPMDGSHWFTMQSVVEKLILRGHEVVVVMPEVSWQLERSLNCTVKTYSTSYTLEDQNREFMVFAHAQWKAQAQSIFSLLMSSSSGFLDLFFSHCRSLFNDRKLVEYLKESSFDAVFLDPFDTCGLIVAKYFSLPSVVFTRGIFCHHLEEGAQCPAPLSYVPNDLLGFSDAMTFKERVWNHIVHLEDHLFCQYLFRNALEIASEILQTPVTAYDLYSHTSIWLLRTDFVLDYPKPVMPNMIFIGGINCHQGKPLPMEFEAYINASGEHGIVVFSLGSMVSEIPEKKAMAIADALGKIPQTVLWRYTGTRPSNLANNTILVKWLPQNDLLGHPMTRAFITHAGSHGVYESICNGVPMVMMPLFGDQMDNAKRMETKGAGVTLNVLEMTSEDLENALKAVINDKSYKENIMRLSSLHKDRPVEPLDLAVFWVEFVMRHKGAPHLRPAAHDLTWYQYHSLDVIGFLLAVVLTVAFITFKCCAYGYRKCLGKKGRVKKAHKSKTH
The data set can be described thus: Activity of human recombinant UGT1A10 expressed in insect cells assessed as enzyme mediated glucuronidation at 500 uM by LC-MS/MS method.

The subject of data set [5] is Liver microsome. The data set is described as follows: Drug metabolism in human liver microsomes assessed as drug glucuronidation per mg tissue in presence of BSA by LC-MS/MS method.

Take `CC1=NN(c2ccccc2)C(=O)C1` [EDARAVONE]: the Drug metabolism result in data set [1], in data set [2] and in data set [4] was “metabolite_detected” each time. In addition, the figures for the Km in data set [3] (read-out: KmH) and in data set [3] (read-out: KmL) were 8.7 µM and 1470 µM, respectively. Besides, the VmaxH in data set [5] is reported as 137.9 pmol/min/g. In addition, the VmaxL in data set [5] stood at 4904 pmol/min/g.

(Values after ChEMBL document CHEMBL3526061, “Glucuronidation of edaravone by human liver and kidney microsomes: biphasic kinetics and identification of UGT1A9 as the major UDP-glucuronosyltransferase isoform” (Drug Metab Dispos, 2012).)
